In PubChem BioAssay AID328 (DTP/NCI, 2004):
Several values for one entry are separate records, joined by “and”; a condition that tells them apart may be missing. Equal values may be shown once. Inconclusive results and toxic doses are left out.

Test system: BDF1 mice, P388 leukemia ip, median survival T/C
Test: NCI In Vivo Anticancer Drug Screen. Data for tumor model P388 Leukemia (intraperitoneal) in B6D2F1 (BDF1) mice
Conditions: endpoint: median survival time, higher = longer survival
Method in brief: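 In tumour-bearing mice, survival after compound treatment is set against the vehicle group and given as a quotient.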

[1] = dose: 100.0 mg/kg/injection, schedule: Q04DX003 (ip), vehicle: Klucel (hydroxypropylcellulose) (HPC)
[2] = dose: 200.0 mg/kg/injection, schedule: Q04DX003 (ip), vehicle: Klucel (hydroxypropylcellulose) (HPC)
[3] = dose: 400.0 mg/kg/injection, schedule: Q04DX003 (ip), vehicle: Klucel (hydroxypropylcellulose) (HPC)
[4] = dose: 50.0 mg/kg/injection, schedule: Q04DX003 (ip), vehicle: saline with Tween-80
[5] = dose: 12.5 mg/kg/injection, schedule: Q01DX009 (ip), vehicle: saline with Tween-80
[6] = dose: 25.0 mg/kg/injection, schedule: Q01DX009 (ip), vehicle: saline with Tween-80
[7] = dose: 50.0 mg/kg/injection, schedule: Q01DX009 (ip), vehicle: saline with Tween-80
[8] = dose: 100.0 mg/kg/injection, schedule: Q01DX009 (ip), vehicle: saline with Tween-80
[9] = dose: 200.0 mg/kg/injection, schedule: Q01DX009 (ip), vehicle: saline with Tween-80
[10] = dose: 200.0 mg/kg/injection, schedule: Q04DX003 (ip), vehicle: saline with Tween-80
[11] = dose: 100.0 mg/kg/injection, schedule: Q04DX003 (ip), vehicle: saline with Tween-80
[12] = dose: 50.0 mg/kg/injection, schedule: Q01DX009 (ip), vehicle: saline
[13] = dose: 100.0 mg/kg/injection, schedule: Q04DX003 (ip), vehicle: saline
[14] = dose: 200.0 mg/kg/injection, schedule: Q04DX003 (ip), vehicle: saline
[15] = dose: 400.0 mg/kg/injection, schedule: Q04DX003 (ip), vehicle: saline

CC12C(C#N)=C(c3ccccc3)C=C(c3ccccc3)C1=C(c1ccccc1)c1ccccc12 (stereo unspecified)
T/C [1]: 108 % of control
T/C [2]: 95 % of control
T/C [3]: 91 % of control

Nc1nc(C=O)c(CCc2ccccc2)c(=O)[nH]1
T/C [4]: 113 % of control

Cc1cc(NCCN(C(C)C)C(C)C)nc(/N=C(\N)Nc2ccc(Cl)c(C(F)(F)F)c2)n1
T/C (dose: 3.8 mg/kg/injection, schedule: Q04DX003 (ip), vehicle: Klucel (hydroxypropylcellulose) (HPC)): 104 % of control
T/C (dose: 4.68 mg/kg/injection, schedule: Q01DX009 (ip), vehicle: Klucel (hydroxypropylcellulose) (HPC)): 95 % of control
T/C (dose: 5.8 mg/kg/injection, schedule: Q04DX003 (ip), vehicle: Klucel (hydroxypropylcellulose) (HPC)): 95 % of control
T/C (dose: 9.37 mg/kg/injection, schedule: Q01DX009 (ip), vehicle: Klucel (hydroxypropylcellulose) (HPC)): 100 % of control
T/C (dose: 18.75 mg/kg/injection, schedule: Q01DX009 (ip), vehicle: Klucel (hydroxypropylcellulose) (HPC)): 104 % of control
T/C (dose: 20.0 mg/kg/injection, schedule: Q04DX003 (ip), vehicle: Klucel (hydroxypropylcellulose) (HPC)): 116 % of control
T/C (dose: 26.0 mg/kg/injection, schedule: Q01DX009 (ip), vehicle: Klucel (hydroxypropylcellulose) (HPC)): 95 % of control
T/C (dose: 26.0 mg/kg/injection, schedule: Q04DX003 (ip), vehicle: Klucel (hydroxypropylcellulose) (HPC)): 106 % of control
T/C (dose: 40.0 mg/kg/injection, schedule: Q04DX003 (ip), vehicle: Klucel (hydroxypropylcellulose) (HPC)): 106 % of control and 116 % of control
T/C (dose: 60.0 mg/kg/injection, schedule: Q04DX003 (ip), vehicle: Klucel (hydroxypropylcellulose) (HPC)): 123 % of control

CCOc1ccc(-c2cc(C)n(C)[n+]2C)cc1
T/C [5]: 100 % of control
T/C [6]: 98 % of control
T/C [7]: 92 % of control

COc1cc2ccc(CCN)cc2cc1OC
T/C [5]: 95 % of control
T/C [6]: 108 % of control
T/C [7]: 87 % of control

CCCC(O)(CCC)CC(=O)OCC
T/C (dose: 100.0 mg/kg/injection, schedule: Q04DX003 (ip), vehicle: saline sonified): 104 % of control
T/C (dose: 200.0 mg/kg/injection, schedule: Q04DX003 (ip), vehicle: saline sonified): 109 % of control
T/C (dose: 400.0 mg/kg/injection, schedule: Q04DX003 (ip), vehicle: saline sonified): 113 % of control

O=C(NO)c1ccc(O)c(O)c1
T/C (dose: 200.0 mg/kg/injection, schedule: Q01DX005 (ip), vehicle: water): 153 % of control
T/C (dose: 400.0 mg/kg/injection, schedule: Q01DX005 (ip), vehicle: water): 166 % of control

C=C1CCC2(C(C)C)CC12 (stereo unspecified)
T/C (dose: 100.0 mg/kg/injection, schedule: Q01DX001 (ip), vehicle: saline sonified): 109 % of control
T/C (dose: 200.0 mg/kg/injection, schedule: Q01DX001 (ip), vehicle: saline sonified): 104 % of control
T/C (dose: 400.0 mg/kg/injection, schedule: Q01DX001 (ip), vehicle: saline sonified): 104 % of control

OC(c1ccccc1)(C1CCNCC1)C1CC1 (stereo unspecified)
T/C (dose: 25.0 mg/kg/injection, schedule: Q01DX001 (ip), vehicle: saline): 107 % of control
T/C (dose: 50.0 mg/kg/injection, schedule: Q01DX001 (ip), vehicle: saline): 107 % of control
T/C (dose: 100.0 mg/kg/injection, schedule: Q01DX001 (ip), vehicle: saline): 118 % of control

Cc1n(C(C)C)c2c([n+]1C)C(=O)c1ccccc1C2=O
T/C (dose: 1.25 mg/kg/injection, schedule: Q01DX009 (ip), vehicle: alcohol): 118 % of control
T/C (dose: 2.5 mg/kg/injection, schedule: Q01DX009 (ip), vehicle: alcohol): 122 % of control

Cc1cc(NC(=O)Nc2ccc(Cl)cc2)no1
T/C [7]: 100 % of control
T/C [8]: 100 % of control
T/C [9]: 100 % of control

CCOC(=O)NCCCCCCNC(=O)OCC
T/C [7]: 95 % of control
T/C [8]: 100 % of control
T/C [10]: 90 % of control

CCCCNC(C)(C)C(SC(C)=O)c1ccc(Cl)cc1 (stereo unspecified)
T/C [11]: 108 % of control
T/C [10]: 112 % of control

O=C(O)c1ccccc1C(=O)Nc1ccccc1C(F)(F)F
T/C [7]: 94 % of control
T/C [8]: 89 % of control
T/C [9]: 121 % of control

C[CH2][Sn]([c]1ccccc1)([c]1ccccc1)[c]1ccccc1
T/C [5]: 104 % of control
T/C [6]: 109 % of control
T/C [7]: 104 % of control

CN(C)c1ccc(C(=O)O)cn1
T/C [12]: 100 % of control
T/C (dose: 100.0 mg/kg/injection, schedule: Q01DX009 (ip), vehicle: saline): 101 % of control
T/C [13]: 102 % of control
T/C (dose: 200.0 mg/kg/injection, schedule: Q01DX007 (ip), vehicle: saline): 110 % of control
T/C (dose: 200.0 mg/kg/injection, schedule: Q01DX009 (ip), vehicle: saline): 92 % of control
T/C [14]: 100 % of control
T/C (dose: 300.0 mg/kg/injection, schedule: Q01DX007 (ip), vehicle: saline): 108 % of control
T/C (dose: 400.0 mg/kg/injection, schedule: Q01DX007 (ip), vehicle: saline): 100 % of control
T/C [15]: 109 % of control
T/C (dose: 500.0 mg/kg/injection, schedule: Q01DX007 (ip), vehicle: saline): 106 % of control
T/C (dose: 600.0 mg/kg/injection, schedule: Q01DX007 (ip), vehicle: saline): 110 % of control

N=c1ccc2nc3ccc(N)cc3sc-2c1
T/C (dose: 25.0 mg/kg/injection, schedule: Q04DX003 (ip), vehicle: saline): 100 % of control
T/C (dose: 50.0 mg/kg/injection, schedule: Q04DX003 (ip), vehicle: saline): 109 % of control

COC(=O)Nc1nc2ccc(C(=O)c3ccccc3)cc2[nH]1
T/C (dose: 10.0 mg/kg/injection, schedule: Q04DX003 (ip), vehicle: other): 106 % of control
T/C (dose: 30.0 mg/kg/injection, schedule: Q04DX003 (ip), vehicle: saline with Tween-80): 173 % of control
T/C (dose: 35.0 mg/kg/injection, schedule: Q04DX003 (ip), vehicle: saline with Tween-80): 178 % of control

CCOC(=O)C1OC1(C)c1ccccc1 (stereo unspecified)
T/C (dose: 75.0 mg/kg/injection, schedule: Q01DX009 (ip), vehicle: Klucel (hydroxypropylcellulose) (HPC)): 95 % of control
T/C [1]: 100 % of control and 103 % of control
T/C (dose: 150.0 mg/kg/injection, schedule: Q01DX009 (ip), vehicle: Klucel (hydroxypropylcellulose) (HPC)): 90 % of control
T/C [2]: 100 % of control and 111 % of control
T/C (dose: 300.0 mg/kg/injection, schedule: Q01DX009 (ip), vehicle: Klucel (hydroxypropylcellulose) (HPC)): 113 % of control
T/C [3]: 92 % of control and 104 % of control

COc1cc(Br)c(CCC#N)cc1OC
T/C [7]: 91 % of control
T/C [8]: 110 % of control
T/C [9]: 92 % of control

CC1CCCCC12OCCO2 (stereo unspecified)
T/C [7]: 100 % of control
T/C [8]: 113 % of control
T/C [11]: 100 % of control
T/C [9]: 104 % of control
T/C [10]: 109 % of control
T/C (dose: 400.0 mg/kg/injection, schedule: Q04DX003 (ip), vehicle: saline with Tween-80): 100 % of control

CS(=O)(=O)NN
T/C (dose: 12.5 mg/kg/injection, schedule: Q01DX009 (ip), vehicle: saline): 95 % of control
T/C (dose: 25.0 mg/kg/injection, schedule: Q01DX009 (ip), vehicle: saline): 95 % of control
T/C (dose: 37.5 mg/kg/injection, schedule: Q04DX003 (ip), vehicle: saline): 100 % of control
T/C [12]: 90 % of control
T/C (dose: 75.0 mg/kg/injection, schedule: Q04DX003 (ip), vehicle: saline): 90 % of control

CCOC(=O)CCOCOCCC(=O)OCC
T/C [13]: 100 % of control
T/C [14]: 95 % of control
T/C [15]: 95 % of control

O=C(/C=C/c1ccc(OCc2ccccc2)cc1)c1ccc(F)cc1
T/C [7]: 89 % of control
T/C [8]: 98 % of control
T/C [9]: 89 % of control

CCCCC1C(=O)OC(C(C)C(O)CCCN=C(N)N)C(C)C=C(C)CCCCC(O)CC(O)CC(O)CC(O)CC(O)C(OC2OC(CO)C(O)C2O)C=C(C)C(O)CCCC(O)CCCC(O)CCC(C)C1O (stereo unspecified)
T/C (dose: 0.3 mg/kg/injection, schedule: Q01DX010 (ip), vehicle: carboxymethylcellulose (CMC)): 90 % of control
T/C (dose: 0.6 mg/kg/injection, schedule: Q01DX010 (ip), vehicle: carboxymethylcellulose (CMC)): 90 % of control
T/C (dose: 1.2 mg/kg/injection, schedule: Q01DX010 (ip), vehicle: carboxymethylcellulose (CMC)): 95 % of control
T/C (dose: 2.5 mg/kg/injection, schedule: Q01DX010 (ip), vehicle: carboxymethylcellulose (CMC)): 90 % of control

Cc1cc(N/N=C/c2ccc(N(CCCl)CCCl)cc2)c2cc3c(cc2n1)OCO3
T/C (dose: 12.5 mg/kg/injection, schedule: Q04DX003 (ip), vehicle: saline with Tween-80): 114 % of control
T/C (dose: 25.0 mg/kg/injection, schedule: Q04DX003 (ip), vehicle: saline with Tween-80): 105 % of control
T/C [4]: 115 % of control
